Assay results taken from patent publication US9464291B2, “Methods and compositions for the treatment of cancer” (University of South Alabama, priority 2012, dated 2016).
“Also recorded” adds a separate entry of the source.

Key:
c-fos = c-fos mRNA (semi-quantitative PCR) and protein in A2780-CP70 cells; format: cell-based, human
[1] = test system: c-jun (Ser 63, Ser 73, Thr 91, Thr 93); assay: c-jun protein phosphorylation, Western blot, A2780-CP70 cells; format: cell-based, human; conditions: 72 hr observation
Procedure: Protein levels for c-jun, c-fos, phosphorylated c-jun (Ser 63), phosphorylated c-jun (Ser 73), and phosphorylated c-jun (Thr 91, Thr 93) were tested in cytosolic, nuclear, and whole cell fractions at 0 hr, 6 hr, 24 hr, 48 hr, and 72 hr. Internal controls for cytosolic and nuclear fractions included α-tubulin and histone deacetylase 3.
Phosphorylation of c-jun in A2780-CP70 cells transfected with anti-GLI1 shRNA construct was assessed using Western blot analysis. Protein levels for c-jun, phosphorylated c-jun (Ser 63), phosphorylated c-jun (Ser 73), and phosphorylated c-jun (Thr 91, Thr 93) were examined at 0 hr, 6 hr, 24 hr, 48 hr, and 72 hr.
A2780-CP70 cells were treated with an IC50 dose of cisplatin and an IC50 dose of anti-Gli1 shRNA.

MC3T3-E1 cells = assay: Osteoblast differentiation (ALP) and mineralization (Alizarin Red S), MC3T3-E1; format: cell-based, murine; conditions: 100 nM ligand in DM
Procedure: The procedure for differentiation of osteoblasts was standardized. MC3T3-E1 cells were cultured in the presence of ascorbic acid and β-glycerophosphate. Mineralization was examined by Alizarin RedS staining (Ueno, A., et al. (2001). Matrix Biol 20, 347-355; Lee, Y. K., et al. (2004). J Biomed Mater Res A 69, 188-195; Duarte, W. R., et al. (2003). S100A4: a novel negative regulator of mineralization and osteoblast differentiation. J Bone Miner Res 18, 493-501). Referring to FIG. 13 and FIG. 14, differentiation was evident by intense red staining in presence of differentiation medium and in differentiation medium containing SHH compared to the control, growth medium. This was also evident in the intensity of absorbance and in the numbers of mineralized nodules formed (counted under the microscope) (FIG. 15).
Induction of osteoblastic and osteoclastic differentiation—In order to test the effect of conditioned medium from the tumor cells on osteoblast differentiation, a double-strength differentiation medium (DM) was formulated for MC3T3 E1 Sc-14 cells. […] Osteoblast differentiation was assessed by alkaline phosphatase (ALP) activity assay in the perspective of total phosphatase. The functional assessment of osteoblast mineralization was quantified by staining with Alizarin Red S and scoring the number of mineralized nodules.

OPN = OPN expression in pre-osteoclastic RAW264.7 cells; format: cell-based, murine
Procedure: Western Blotting Analysis—Whole cell lysates were collected in NP-40 buffer (150 mM NaCl, 50 mM Tris, 1% NP-40). Total protein (30 μg) was resolved by SDS-PAGE gel and transferred to PVDF membranes. Membranes were immunoblotted overnight at 4° C. with antibodies to either SHH (Santacruz, Calif., USA) or IHH (Santacruz). Equal loading was confirmed with anti-β-tubulin (Cell Signaling, Danvers, Mass.). To assess OPN expression upon SHH treatment, […] were grown in 6-well plates in the presence of SHH. After 24 hours the cells were lysed in NP-40 buffer and 30 μg of each experimental group assessed by immunoblotting. To assess for the expression of OPN, MMP9 and CTSK, at the end of Day 6 of differentiation, all the different experimental groups were kept in serum free medium for 24 hrs and both, the conditioned media and whole cell lysates were collected and immunoblotted using antibodies to either anti-mouse OPN (Millipore, Bedford, Mass.), or CTSK (SantaCruz Biotech). Equal loading was confirmed with anti-β-actin (Sigma) antibody. Secreted MMP9 (Santa Cruz Biotech) was assessed by loading equal quantity of protein from the serum-free conditioned medium. […] Detection and quantification of proteins was done using Fuji LAS 3000 apparatus and Multigauge V3.1 software (Fujifilm, Valhalla, N.Y.). Band intensities were measured in arbitrary Units (AU). […]
Luciferase Assay—Cells were co-transfected with the OPN promoter construct, pGL3-OPNB and pSV-β-galactosidase (Promega) (Das, S., et al. (2009) J Biol Chem 284, 22888-22897). […] Readings were normalized to β-galactosidase. […]
Quantitative RT-PCR (qRT-PCR)-cDNA was generated using High Capacity Reverse Transcriptase Kit (Applied Biosystems, Foster City, Calif.). […] Following the experimental regime as described herein (for Osteoclast differentiation/activity) RNA was isolated using Trizol (Invitrogen) and assessed as describere herein. […]

Compound	c-fos mRNA peak level (c-fos; 70 μM cyclopamine, vs 0 hr)	c-fos protein level (c-fos; A2780-CP70, cyclopamine-treated)	c-jun phosphorylation at Ser63 [1]	c-jun phosphorylation at Thr91/93 [1]	osteoblast differentiation (ALP activity) (MC3T3-E1 cells)	numbers of mineralized nodules (MC3T3-E1 cells; 14 days)	OPN protein levels (OPN; 24 hours post SHH)	OPN promoter activity (OPN; 24 hours post-SHH)	OPN mRNA levels (OPN; recombinant SHH)
CC1=C2C[C@H]3[C@@H](CC=C4C[C@@H](O)CC[C@@]43C)[C@@H]2CC[C@]12O[C@@H]1C[C@H](C)CN[C@H]1[C@H]2C [cyclopamine]	27 fold	increased substantially at 6 hr	no phosphorylation occurred at Ser63; also recorded: no substantial expression was detected; also recorded: not observed	peak levels at 6 hr					
SHH: recombinant Sonic hedgehog ligand (R & D Systems)					stimulated differentiation	significant increase (p<0.05)	increased protein levels of OPN	increase in the activity of the OPN promoter	dose-dependent significant (p<0.0001) increase in OPN mRNA levels
